# Test results published in US7579468B2, “Methods of modulating neurotrophin-mediated activity” (PainCeptor Pharma Corporation, priority 2005, dated 2009).
# Assays:
# [1] = tested on: A875: p75 alone; assay: 125I-NGF binding displacement in A875 cells; parameters: species or system human; details: A875 cells expressing p75; individual experiment
# Procedure: (§1) All cells were incubated at 37° C. in 5% CO2. PC12 cells were maintained in RPMI-1640 medium supplemented with 10% fetal bovine serum (FBS). A875 human melanoma cells were maintained in DMEM with 10% FBS. HEK 293 cells were stably transfected with human TrkA plasmid (see below) and maintained in DMEM with 10% FBS and G418 (600 μg/mL) for selection.
# NGF binding was evaluated using methods familiar to those who are skilled in the art. Briefly, cells expressing one or both NGF receptors (PC12: TrkA+p75; A875: p75 alone; HEK_TrkA: TrkA alone) were harvested by replacing the medium with calcium-magnesium free balanced salt (Grey's) solution and incubating at 37° C. for 15 min. For NGF binding, cells were resuspended at a concentration of 2×10^6 cells/mL in HEPES-Krebs-Ringer (HKR) buffer (10 mM HEPES; 125 mM NaCl; 4.8 mM KCl; 1.3 mM CaCl2; 1.2 mM MgSO4; 1.2 mM KH2PO4; 1 mg/ml BSA; 1 mg/ml glucose; pH 7.4) and exposed to ^125I-NGF (˜0.11 nM) in the presence or absence of varying concentrations of the compound. Non-specific binding was determined for reference by incubating ^125I-NGF with an excess of non-radioactive NGF in the absence of compound. Following a two-hour incubation period at 4° C., ^125I-NGF bound to the cells was quantified in a gamma radiation counter following separation from unbound NGF by filtration or centrifugation through glycerol (10% in HKR). Inhibition of binding was calculated as a percent of the specific binding (calculated as the differential between ^125I-NGF binding in the absence and presence of an excess of non-radioactive NGF without compound). Dose-response inhibition curves were typically generated with seven concentrations of a given compound, with three replicates for each concentration. For most compounds, multiple dose-response curves were generated.
# [2] = tested on: HEK_TrkA: TrkA alone (human TrkA); assay: 125I-NGF binding displacement in HEK_TrkA cells; details: individual experiment
# Procedure: as §1
# Expression of human TrkA in HEK cells was achieved by transfecting the cells with the TrkA expression vector using Lipofectamine (Invitrogen) reagent. HEK cells were plated in 100 mm Petri dishes at a concentration of 10^6 cells per dish. The next day, a solution of DNA diluted in 1 mL OptiMEM (Invitrogen) per dish was prepared and incubated for 15 min at room temperature. […]
# NGF binding was evaluated using methods familiar to those who are skilled in the art. […] Non-specific binding was determined for reference by incubating ^125I-NGF with an excess of non-radioactive NGF in the absence of compound. Following a two-hour incubation period at 4° C., ^125I-NGF bound to the cells was quantified in a gamma radiation counter following separation from unbound NGF by filtration or centrifugation through glycerol (10% in HKR). Inhibition of binding was calculated as a percent of the specific binding (calculated as the differential between ^125I-NGF binding in the absence and presence of an excess of non-radioactive NGF without compound). […]
# [3] = tested on: NGF-induced Erk 1/2 phosphorylation in PC12 cells; assay: Erk phosphorylation in NGF-stimulated PC12 cells (Western blot); type: cell-based, rat; details: 5 ng/mL NGF
# Procedure: This assay is useful for establishing that the compounds of the invention are functional NGF antagonists, not receptor agonists (an agonist could conceivably block NGF binding but actually activate the receptor). Erk 1/2 is a kinase activated down stream of TrkA and is a well studied member of the NGF-induced signal transduction cascade.
# PC12 cells expressing TrkA and p75 were acutely exposed to 5 ng/mL NGF (15 min; 37° C.; 5% CO2) that was pre-incubated (30 min; room temperature) with or without the compounds. Cells were lysed in Laemmli sample buffer (for SDS-PAGE) or a lysis buffer containing Triton X-100 (for ELISA). Following SDS-PAGE, proteins were electroblotted onto nitrocellulose and immunoprobed for phosphorylated Erk 1 and 2. Blocking and primary antibody incubations of immunoblots were performed in Tris-buffered saline-Tween (10 mM Tris, pH 8.0, 150 mM NaCl, and 0.2% Tween 20) supplemented with 5% (w/v) bovine serum albumin (BSA); secondary antibody incubations were performed in 5% (w/v) dried skim milk powder. Immunoreactive bands were detected by chemiluminescence.
# [4] = tested on: PC12 cells; assay: NGF-induced neurite outgrowth in PC12 cells; type: cell-based, rat; details: 4 days of exposure to NGF
# Procedure: This assay was run as a further functional marker of NGF antagonism and takes advantage of the differentiation of PC12 cells (neurite outgrowth) induced by NGF. Cultures of PC12 cells were grown on Terasaki plates pre-coated with poly-D-lysine. Cells were exposed to NGF (1-50 (preferably 5) ng/ml) to induce neurite outgrowth as described elsewhere [L A Greene & A S Tischler, Establishment of a noradrenergic clonal line of rat adrenal pheochromocytoma cells which respond to nerve growth factor, Proc Natl Acad Sci USA. 1976 July; 73(7): 2424-2428]. In addition to NGF, cells were exposed to varying concentration of the compounds or vehicle. Following 4 days of exposure to NGF in the presence or absence of compound, neurite outgrowth was quantified. A neurite was scored if its caliber from origin to terminal was approximately the same and the length was equal to or greater than 1.5 the cell body diameter. The number of neurite bearing cells per total number of viable cells was calculated for each condition; the number of cells with neurites in the presence of NGF (without compound exposure) was considered to represent maximal (100%) outgrowth, to which the inhibitory effect of compounds of the invention on NGF-induced outgrowth was compared.
# [5] = tested on: Mice; assay: Writhing Test (acetic acid abdominal contraction test); type: in vivo, mouse
# Procedure: The acetic acid abdominal contraction test (Martinez et al., Pain 1999; 81: 179) was used to determine the efficacy of different compounds in a model of acute visceral chemical nociception. […] Compound or vehicle was administered (i.p. or s.c.) 15-45 minutes prior to the acetic acid injection. Each episode of writhing is characterized by a lengthwise stretching of the torso with a concomitant arching of the back.
# Statistical analysis was performed using Prism™ 4.01 software package (GraphPad, San Diego, Calif., USA). The difference in response levels between treatment groups and control vehicle group was analyzed using an ANOVA followed by Bonferroni's method for post-hoc pair-wise comparisons. A p value <0.05 was considered to be significant.
smiles,measurement,setting,value
"CC(=O)Nc1cc2c3c(cc(NC(C)=O)cc3c1)C(=O)N(CCCC(=O)O)C2=O [Compound 11, 4-(5,8-Bis-acetylamino-1,3-dioxo-1H,3H-benzo[de]isoquinolin-2-yl)-butyric acid]","NGF binding displacement, dose-response curve",[1],effectively blocks NGF binding to cells expressing p75
same,"NGF binding displacement, dose-response curve",[2],effectively blocks NGF binding to TrkA
same,Inhibition of NGF-induced Erk 1/2 phosphorylation,[3],inhibits NGF-induced Erk 1/2 phosphorylation in PC12 cells
same,Inhibition of NGF-induced neurite outgrowth,[4],effectively inhibit neurite outgrowth induced by NGF
same,Number of abdominal contractions (writhing),"[5]; 15 mg/kg i.p., 30 minutes following acetic acid, vehicle 54±6",28±4
same,Antinociceptive effect in the Writhing Test,"[5]; Compound 63 100 mg/kg i.p., Compound 11 15 mg/kg i.p., 10-20 minutes before acetic acid",significant antinociceptive effects
